# Laboratory results published in US20140005276A1, “COMPOSITIONS COMPRISING SUBSTITUTED PHENOLS AND TOPICAL APPLICATION THEREOF” (priority 2012, published 2014).
# Legend:
# [1] = test system: NF-kB; test: NF-κB INHIBITION TEST (NF-kB luciferase reporter, TNFα-stimulated H9c2 cells); assay type: cell-based, Rat
# Protocol: The NF-κB INHIBITION TEST was conducted as follows. Rat cardiac myoblasts H9c2 cells were purchased from ATCC (Manassas, Va.). Cultures were maintained in Dulbecco's modified Eagle's medium (DMEM, Invitrogen Life Technologies, Carlsbad, Calif.) supplemented with 10% fetal bovine serum, 100 units/ml penicillin, and 50 ug/ml streptomycin (Invitrogen life technologies, Carlsbad, Calif.). 1×10^4 cells grown in 96-well plates were transiently transfected with 0.45 ug total DNA per well using Lipofectamine 2000 (Invitrogen life technologies, Carlsbad, Calif.). In all transfections, a construct with the thymidine kinase promoter and the Renilla luciferase reporter gene (pRL-TK, Promega, Madison Wis.) was included as an internal control in addition to the NF-kB luciferase promoter. One day after transfection, cells were treated with the indicated samples (in DMSO as vehicle) at indicated concentrations and stimulated with 100 ng/mL of Tumor Necrosis Factor-α (TNFα, Sigma-Aldrich, St Louis, Mo.) for approximately 24 hours before they were lysed for luciferase assays, using Dual-Luciferase Reporter System from Promega (Madison, Wis.), following manufacturer's protocol. Briefly, the firefly luciferase activity was measured first (representing NF-kB promoter activity), followed by the renilla luciferase (internal control), using luminometer LMAX, from Molecular Devices (Sunnyvale, Calif.). The ratio of these two luciferase activities (RLU) was used to evaluate the activity of each promoter:
# NF-κB Inhibition=[1−(RLUsample/RLUcontrol)]*100
# where RLUsample and RLUcontrol are the normalized luciferase activity ratios of the sample and control, respectively.
# Percent NF-kB Inhibition is also reported.
# [2] = test system: Collagenase; test: Collagenase inhibition, EnzCheck assay; assay type: biochemical
# Protocol: Collagenase inhibition was measured using EnzCheck® assay (Molecular Probes, Eugene, Oreg.) according to the manufacturer's instructions. Test materials were evaluated over a wide range of concentrations. Fluorescence was measured after 2-3 hours using a microplate reader set with the wavelength combination 485/530 nm
# [3] = 0.0001% by weight of alkylphenol
# [4] = 0.001% by weight of alkylphenol
# [5] = 10 ug/mL, TNFα 100 ng/ml stimulated H9c2 cells
Structure (SMILES),"Percent NF-kB Inhibition relative to vehicle ([1]; 0.2 ug/ml, vehicle 0.1% DMSO) [%]","Percent NF-kB Inhibition relative to vehicle ([1]; 0.5 ug/ml, vehicle 0.1% DMSO) [%]","Percent NF-kB Inhibition relative to vehicle ([1]; 1 ug/ml, vehicle 0.1% DMSO) [%]","Percent NF-kB Inhibition relative to vehicle ([1]; 2 ug/ml, vehicle 0.1% DMSO) [%]","Percent NF-kB Inhibition relative to vehicle ([1]; 4 ug/ml, vehicle 0.1% DMSO) [%]","Percent Inhibition of Collagenase [2, 3] [%]","Percent Inhibition of Collagenase [2, 4] [%]",Percent Inhibition of Collagenase ([2]; 0.01% by weight of alkylphenol) [%],Percent Inhibition of Collagenase ([2]; 0.1% by weight of alkylphenol) [%],Percent Inhibition of Collagenase ([2]; 1% by weight of alkylphenol) [%],"Percent NF-kB Inhibition relative to vehicle [1, 5]","Percent NF-kB Inhibition relative to vehicle ([1]; 25 ug/mL, TNFα 100 ng/ml stimulated H9c2 cells)"
"Oc1ccc(/C=C/c2cc(O)cc(/C=C/c3ccc(O)cc3)c2)cc1 [1-hydroxyl 3,5-bis(4′hydroxylstyryl)benzene]",0.5,22.1,51.7,71.0,96.1,,,,,,,
CCCCCc1ccc(O)cc1 [4-amylphenol],,,,,,29.42,29.30,34.19,44.66,53.33,54.2%,
CCCCc1ccc(O)cc1 [4-butylphenol],,,,,,26.55,23.16,26.81,54.38,59.51,,
CCCCCCc1ccc(O)cc1 [4-hexylphenol],,,,,,19.57,16.90,27.67,28.82,46.13,,
"CCCc1ccc(O)cc1 [4-propylphenol, reference compound]",,,,,,,,,,,(−49.2%),(−59.1%)
